From article PMC3626286 (Chemical research in toxicology, 2013)
Where “and” joins values, the source holds several entries; their conditions need not be identical. Equal entries are not always repeated. Entries after “also recorded” stand apart in the source; their conditions may differ. Where two headings read alike, the source gives them in different places.

Assays:
[1] = cited from earlier work
[2] = system: equine liver glutathione-S-transferase (GST); details: 1 μM, GSH 10 mM, equine liver GST 30 units/ml, pH 7.4, 37°C
rat hepatocytes [3] = assay type: in vitro ADME; details: for fold decrease in concentration on ice versus 37°C: 0°C versus 37°C; for concentration formed at 60 min / fold decrease in concentration on ice versus 37°C: 60 min
[4] = Chemical reactivity with GSH in buffer in the absence of GST; assay type: physicochemical; details: 1 μM, GSH 10 mM, 0.1 M potassium phosphate buffer pH 7.4, 37°C, without GST
[5] = Chemical stability in 0.1 M potassium phosphate buffer; assay type: physicochemical; details: for duration of incubation with no detectable hydrolysis: 1 μM, 0.1 M potassium phosphate buffer pH 7.4, 37°C, data not shown; for chemical stability over the 24 h incubation (in words): buffer, physiological conditions
rat hepatocytes [6] = details: complete inhibition of acyl glucuronidation; cited from earlier work
rat hepatocytes [7] = details: cited from earlier work
rat hepatocytes [8] = details: cited from earlier work; remark: listed apart in the source
equine liver GST = details: after 30 min incubation; cited from earlier work
[9] = MFA 100 μM, rat hepatocytes, 37°C
[10] = inhibitor 1 mM co-incubated with MFA
[11] = in vitro in physiological buffer

In the case of `C[C@H](C(=O)O[C@@H]1O[C@H](C(=O)O)[C@@H](O)[C@H](O)[C@H]1O)c1ccccc1` [(S)-2-phenylpropionic-1-β-O-acyl glucuronide], the “half-life of degradation (t1/2)” value [1] is given as 2.4 h.
For `Cc1cccc(Nc2ccccc2C(=O)SCCNC(=O)CCNC(=O)[C@H](O)C(C)(C)COP(=O)(O)OP(=O)(O)OC[C@H]2O[C@@H](n3cnc4c(N)ncnc43)[C@H](O)[C@@H]2OP(=O)(O)O)c1C` [MFA-CoA, mefenamic acid-S-acyl-Coenzyme A], the “reactivity towards GSH (rate of MFA-GSH formation) in the presence of GST” value (“reactivity towards GSH” for short) [2] was 3.38±0.04 nM MFA-GSH/min, the “fold lower concentration than MFA-GSH” value (rat hepatocytes [3]; [9]) was 37 fold and the “time point until which undetectable” value (rat hepatocytes [3]; [9]) was 4 min. For the same compound, the “concentration formed at 60 min” value (rat hepatocytes [3]; [9]) was 45.6 nM, the “time point until which undetectable” value (rat hepatocytes [3]; rat hepatocytes on ice (0°C)) was 20 min and 10 min and the “concentration formed at 60 min” value (rat hepatocytes [3]; rat hepatocytes on ice (0°C)) was 14.1 nM. The “fold decrease in concentration on ice versus 37°C” value (rat hepatocytes [3]; rat hepatocytes) was 3.2 fold, the “transacylation of GSH (rate of MFA-GSH formation)” value (“transacylation of GSH” for short) [4] was 2.38±0.64 nM MFA-GSH/min and the “duration of incubation with no detectable hydrolysis” value [5] was “at least 24 h”.
With `Cc1cccc(Nc2ccccc2C(=O)OP(=O)(O)OC[C@H]2O[C@@H](n3cnc4c(N)ncnc43)[C@H](O)[C@@H]2O)c1C` [MFA-AMP, mefenamic acid-acyl-adenylate] the “reactivity towards GSH” value [2] was 1.25±0.28 nM MFA-GSH/min, the “fold lower concentration than MFA-GSH” value (rat hepatocytes [3]; [9]) was 19 fold and the maximum concentration formed (rat hepatocytes [3]; [9]) was 90.2 nM. For the same compound, the “time of maximum concentration” value (rat hepatocytes [3]; [9]) was 20 sec and ~ 20 sec, the “concentration at which formation levelled off” value (rat hepatocytes [3]; rat hepatocytes on ice (0°C)) was 94.1 nM and the “time to maximum concentration” value (rat hepatocytes [3]; rat hepatocytes on ice (0°C)) was 1 min. The “transacylation of GSH” value [4] was 0.21±0.02 nM MFA-GSH/min, the “duration of incubation with no detectable hydrolysis” value [5] was “at least 24 h” and the “chemical stability over the 24 h incubation (in words)” value [5] was “chemically stable”.
In the case of `CC(C(=O)O)c1ccccc1` (centres unmarked) [2-phenylpropionic acid], the “decrease in covalent adduct formation” value (rat hepatocytes [6]) is listed as 18.7%.
For `CC1(C)[C@H]2CC[C@]1(C)[C@H](O)C2` [(−)-borneol], the “decrease in MFA-1-O-G formation” value (rat hepatocytes [7]; inhibitor 1 mM co-incubated with MFA (10 μM, 10 min)) is listed as 91% and the “inhibition of MFA-GSH formation” value (rat hepatocytes [7]; [10]) is listed as “no inhibition”.
In the case of `Cc1cccc(Nc2ccccc2C(=O)SC[C@H](NC(=O)CC[C@H](N)C(=O)O)C(=O)NCC(=O)O)c1C` [MFA-GSH, mefenamic acid-S-acyl-glutathione], the “concentration formed at 60 min” value (rat hepatocytes [3]; [9]) is reported as 1700 nM, the “concentration formed at 60 min” value (rat hepatocytes [3]; rat hepatocytes on ice (0°C)) is reported as 83.9 nM and the “fold decrease in concentration on ice versus 37°C” value (rat hepatocytes [3]; rat hepatocytes) is reported as 20 fold. The “duration of incubation with no detectable hydrolysis” value [5] was “at least 24 h”, the “chemical stability over the 24 h incubation (in words)” value [5] was “stable” and the metabolic half life (rat hepatocytes [8]) was ~ 8 min. For the same compound, the “degradation in the presence of equine liver GST” value (equine liver GST) was 10–11%.
For `CCCCCCCCCCCC(=O)O` [lauric acid], the “inhibition of MFA-CoA formation” value (rat hepatocytes [7]; [10]) is given as 58% and the “inhibition of MFA-GSH formation” value (rat hepatocytes [7]; [10]) is given as 66%.
For `Cc1cccc(Nc2ccccc2C(=O)O[C@@H]2O[C@H](C(=O)O)[C@@H](O)[C@H](O)[C@H]2O)c1C` [MFA-1-O-G, mefenamic acid-1-O-acyl-glucuronide, reference compound], the “reactivity towards GSH” value [2] is given as 0.07±0.01 nM MFA-GSH/min, the “half life of degradation” value ([1]; buffer under physiological conditions) is given as ~ 16 h and the “half life of degradation” value ([1]; previously reported, also confirmed in the authors' laboratory) is given as 16.5 h. For the same compound, the “concentration formed at 60 min” value (rat hepatocytes [3]; [9]) was 42200 nM, the “formation on ice (in words)” value (rat hepatocytes [3]; rat hepatocytes on ice (0°C)) was “nearly undetectable; also recorded: no MFA-1-O-G formation” and the “transacylation of GSH” value [4] was 0.02±0.02 nM MFA-GSH/min.
In the case of `CC(C)(COP(=O)(O)OP(=O)(O)OC[C@H]1O[C@@H](n2cnc3c(N)ncnc32)[C@H](O)[C@@H]1OP(=O)(O)O)[C@@H](O)C(=O)NCCC(=O)NCCSC(=O)Cc1ccccc1` [phenylacetyl-S-acyl-CoA], the “stability after one day of incubation (in words)” value [1] is given as “completely stable”.
For `Cc1cc(CC(=O)O[C@@H]2O[C@H](C(=O)O)[C@@H](O)[C@H](O)[C@H]2O)n(C)c1C(=O)c1ccc(Cl)cc1` [zomepirac-1-β-O-acyl glucuronide], the “half-life of degradation (t1/2)” value [1] is given as 0.45 h.
For `CC(C)(Oc1ccc(Cl)cc1)C(=O)SCCNC(=O)CCNC(=O)C(O)C(C)(C)COP(=O)(O)OP(=O)(O)OCC1OC(n2cnc3c(N)ncnc32)C(O)C1OP(=O)(O)O` (centres unmarked) [clofibric acid-S-acyl-CoA], the degradation half life [1, 11] is listed as 504 h and the hydrolysis per day [1, 11] is listed as ~ 2 % hydrolysis/day.
